Data taken from patent US20120029075A1, “COMPOSITIONS CONTAINING C1 TO C7 ORGANIC ACID MONOGLYCERIDES AND GLYCEROL, THEIR PREPARATION AND USE AS ANTIBACTERIALS AND ANTI-MOULD AGENTS” (priority 2009, published 2012).
Like-named read-outs stand apart in the source and are kept apart here.

Tests used:
Fusarium spp = experiment: In vitro sensitivity test towards filamentous fungi (Example 5), Fusarium; assay type: cell-based; conditions: 5 ml fungal suspension + 5 ml product, 24 hours at 20±4° C.; read after 5 days; control 310000
Protocol: (§1) In Vitro Sensitivity Tests towards Filamentous Fungi (Moulds)
(§2) Strains of Aspergillus spp, Penicillium spp and Fusarium spp were utilized for the test, having been isolated and identified during diagnostic activity at the IZSLER section of Forli from complete feeds used in the chicken industry. To prepare the inoculum, mycelium of pure cultures of the tested strains was collected using a swab. The material thus collected was dissolved in a culture broth (BHI—Brain Heart Infusion). 5 ml of the fungal suspension and an equal amount of the product to be tested were placed in contact in a test tube. The test tube was incubated at 20±4° C. for 24 hours.
(§3) After this time period, the fungal suspension was then seeded and enumerated.
(§4) The control suspension was obtained by placing 5 ml of fungal suspension+5 ml of diluent (Ringer's lactate) into a test tube. Reading of the tests was carried out after a 5 day incubation period at 20±4° C.

Aspergillus spp = experiment: In vitro sensitivity test towards filamentous fungi (Example 5), Aspergillus; assay type: cell-based; conditions: 5 ml fungal suspension + 5 ml product, 24 hours at 20±4° C.; read after 5 days; control 450000
Protocol: as §1, §2, §3, §4

Penicillium spp = experiment: In vitro sensitivity test towards filamentous fungi (Example 5), Penicillium; assay type: cell-based; conditions: 5 ml fungal suspension + 5 ml product, 24 hours at 20±4° C.; read after 5 days; control 97000
Protocol: as §1, §2, §3, §4

E. coli [1] = experiment: Antibacterial potency (Table 1), E. coli count; assay type: cell-based
Campylobacter jejuni = experiment: Antibacterial potency (Table 1), Campylobacter jejuni count
Salmonella typhimurium = experiment: Antibacterial potency (Table 1), Salmonella typhimurium count
[2] = system: Porcine Salmonella typhimurium; experiment: In vitro antibacterial action, appearance of growth in Brain Heart Infusion, pH 6 (Tables 3 and 4); assay type: cell-based; conditions: for Incubation time and appearance of growth: pH 6, inoculation 10^5, Brain Heart Infusion, 3 replications; for Concentration exhibiting inhibitory potency (no growth) in all three replicates: porcine Salmonella typhimurium, tested 5000-40000 ppm
[3] = system: Clostridium perfringens CP27; assay type: cell-based; conditions: for Incubation time and appearance of growth: inoculation 10^5, Brain Heart Infusion, 3 replications; for Concentration exhibiting inhibitory potency (no growth) in all three replicates: Clostridium perfringens, tested 500-4000 ppm
E. coli [4] = experiment: In vitro antibacterial action, appearance of growth in Brain Heart Infusion, pH 5 (Table 5); conditions: for Incubation time and appearance of growth: pH 5, inoculation 10^5, Brain Heart Infusion, 3 replications
[5] = pH 4.5, conc. used: Propionic acid 1:909, Butyric Acid 1:1000, Monobutyrin 43 1:100
[6] = pH 7, conc. used: Propionic acid 1:909, Butyric Acid 1:1000, Monopropionin 43 1:109, Monobutyrin 43 1:100

For `CCC(=O)O.N` [Ammonium propionate], the FUSARIUM spp. count (Fusarium spp) was 500 cfu/ml, the ASPERGILLUS spp. count (Aspergillus spp) was 1000 cfu/ml and the PENICILLIUM spp. count (Penicillium spp) was 100 cfu/ml.
`CCC(=O)O` [Propionic acid] was tested, and the FUSARIUM spp. count (Fusarium spp) was 300 cfu/ml, the ASPERGILLUS spp. count (Aspergillus spp) was 300 cfu/ml and the “E. coli (cfu/ml)” value (E. coli [1]; [5]) was 13 × 10^4 cfu/ml. The “E. coli (cfu/ml)” value (E. coli [1]; [6]) was 54 × 10^4 cfu/ml, the “Campylobacter jejuni (cfu/ml)” value (Campylobacter jejuni; [5]) was 14 × 10^1 cfu/ml and the “Campylobacter jejuni (cfu/ml)” value (Campylobacter jejuni; [6]) was 33 × 10^3 cfu/ml. For the same compound, the PENICILLIUM spp. count (Penicillium spp) was less than 100 cfu/ml, the “Salmonella typhimurium (cfu/ml)” value (Salmonella typhimurium; [5]) was 42 × 10^3 cfu/ml and the “Salmonella typhimurium (cfu/ml)” value (Salmonella typhimurium; [6]) was 11 × 10^4 cfu/ml.
For `CC(=O)O` [Acetic acid], the “Incubation time and appearance of growth” value ([2]; 5000 ppm, Table 3) was “+ (+ for 24 hr)”, the “Incubation time and appearance of growth” value ([2]; 10000 ppm, Table 3) was “+ (+ for 24 hr)” and the “Incubation time and appearance of growth” value ([2]; 15000 ppm, Table 3) was “+ (+ for 24 hr)”. For the same compound, the “Incubation time and appearance of growth” value ([2]; 20000 ppm, Table 3) was “no growth”, the “Incubation time and appearance of growth” value ([2]; 25000 ppm, Table 3) was “no growth” and the “Incubation time and appearance of growth” value ([2]; 30000 ppm, Table 3) was “no growth”. For the same compound, the “Incubation time and appearance of growth” value ([2]; 40000 ppm, Table 3) was “no growth” and the “Concentration exhibiting inhibitory potency (no growth) in all three replicates” value ([2]; acetic acid series) was ≥ 20,000 ppm.
For `CCCC(=O)O` [Butyric Acid], the “E. coli (cfu/ml)” value (E. coli [1]; [5]) was 78 × 10^4 cfu/ml, the “E. coli (cfu/ml)” value (E. coli [1]; [6]) was 106 × 10^4 cfu/ml and the “Campylobacter jejuni (cfu/ml)” value (Campylobacter jejuni; [5]) was 2 × 10^1 cfu/ml. The “Campylobacter jejuni (cfu/ml)” value (Campylobacter jejuni; [6]) was 18 × 10^3 cfu/ml, the “Salmonella typhimurium (cfu/ml)” value (Salmonella typhimurium; [5]) was 25 × 10^3 cfu/ml and the “Salmonella typhimurium (cfu/ml)” value (Salmonella typhimurium; [6]) was 65 × 10^4 cfu/ml. For the same compound, the “Incubation time and appearance of growth” value ([3]; 500 ppm) was “+ (+ for 24 hr)”, the “Incubation time and appearance of growth” value ([3]; 1000 ppm) was “+ (+ for 24 hr)” and the “Incubation time and appearance of growth” value ([3]; 1500 ppm) was “+ (+ for 24 hr)”. For the same compound, the “Incubation time and appearance of growth” value ([3]; 2000 ppm) was “++ (++ for 37 hr)”, the “Incubation time and appearance of growth” value ([3]; 2500 ppm) was “++ (++ for 37 hr)” and the “Incubation time and appearance of growth” value ([3]; 3000 ppm) was “no growth”. For the same compound, the “Incubation time and appearance of growth” value ([3]; 4000 ppm) was “no growth” and the “Concentration exhibiting inhibitory potency (no growth) in all three replicates” value [3] was no less than 3000 ppm.
With Formic acid monoglycerides the “Incubation time and appearance of growth” value ([2]; 5000 ppm, Table 4) was “+ (+ for 24 hr)”, the “Incubation time and appearance of growth” value ([2]; 10000 ppm, Table 4) was “+ (+ for 24 hr)” and the “Incubation time and appearance of growth” value ([2]; 15000 ppm, Table 4) was “+ (+ for 24 hr)”. The “Incubation time and appearance of growth” value ([2]; 20000 ppm, Table 4) was “+ (+ for 24 hr)”, the “Incubation time and appearance of growth” value ([2]; 25000 ppm, Table 4) was “no growth” and the “Incubation time and appearance of growth” value ([2]; 30000 ppm, Table 4) was “no growth”. The “Incubation time and appearance of growth” value ([2]; 40000 ppm, Table 4) was “no growth” and the “Concentration exhibiting inhibitory potency (no growth) in all three replicates” value ([2]; formic acid series) was ≥ 25,000 ppm.
With `O=C(O)/C=C/C(=O)O` [Fumaric acid] the “Incubation time and appearance of growth” value (E. coli [4]; 10000 ppm) was “+ (+ for 24 hr)”, the “Incubation time and appearance of growth” value (E. coli [4]; 20000 ppm) was “+ (+ for 24 hr)” and the “Incubation time and appearance of growth” value (E. coli [4]; 40000 ppm) was “+ (+ for 24 hr)”. For the same compound, the “Incubation time and appearance of growth” value (E. coli [4]; 60000 ppm) was “++ (++ for 37 hr)”, the “Incubation time and appearance of growth” value (E. coli [4]; 80000 ppm) was “++ (++ for 37 hr)” and the “Incubation time and appearance of growth” value (E. coli [4]; 90000 ppm) was “no growth”. The “Incubation time and appearance of growth” value (E. coli [4]; 100000 ppm) was “no growth” and the “Concentration exhibiting inhibitory potency (no growth) in all three replicates” value (E. coli [4]; E. coli, tested 10000-100000 ppm) was ≥ 90,000 ppm.
In the case of Butyric acid monoglycerides, the “Incubation time and appearance of growth” value ([3]; 500 ppm) is reported as “+ (+ for 24 hr)”, the “Incubation time and appearance of growth” value ([3]; 1000 ppm) is reported as “+ (+ for 24 hr)” and the “Incubation time and appearance of growth” value ([3]; 1500 ppm) is reported as “+ (+ for 24 hr)”. For the same compound, the “Incubation time and appearance of growth” value ([3]; 2000 ppm) was “+ (+ for 24 hr)”, the “Incubation time and appearance of growth” value ([3]; 2500 ppm) was “+ (+ for 24 hr)” and the “Incubation time and appearance of growth” value ([3]; 3000 ppm) was “+ (+ for 24 hr)”. For the same compound, the “Incubation time and appearance of growth” value ([3]; 4000 ppm) was “+ (+ for 24 hr)” and the “Concentration exhibiting inhibitory potency (no growth) in all three replicates” value [3] was “do not exhibit any inhibitory potency”.
